Laboratory results published in patent publication US8143254B2, “Methods for modulating ion channels” (Cornell Research Foundation, Inc., priority 2005, dated 2012).

Molecular target: T1, Kv2.1 channels expressed in CHO cells (Rattus norvegicus, UniProt P15387)
T1 construct: expressed in transfected cells; host or cells: CHO cells (transient, co-transfected with GFP plasmid)
T1 sequence (P15387 1-857): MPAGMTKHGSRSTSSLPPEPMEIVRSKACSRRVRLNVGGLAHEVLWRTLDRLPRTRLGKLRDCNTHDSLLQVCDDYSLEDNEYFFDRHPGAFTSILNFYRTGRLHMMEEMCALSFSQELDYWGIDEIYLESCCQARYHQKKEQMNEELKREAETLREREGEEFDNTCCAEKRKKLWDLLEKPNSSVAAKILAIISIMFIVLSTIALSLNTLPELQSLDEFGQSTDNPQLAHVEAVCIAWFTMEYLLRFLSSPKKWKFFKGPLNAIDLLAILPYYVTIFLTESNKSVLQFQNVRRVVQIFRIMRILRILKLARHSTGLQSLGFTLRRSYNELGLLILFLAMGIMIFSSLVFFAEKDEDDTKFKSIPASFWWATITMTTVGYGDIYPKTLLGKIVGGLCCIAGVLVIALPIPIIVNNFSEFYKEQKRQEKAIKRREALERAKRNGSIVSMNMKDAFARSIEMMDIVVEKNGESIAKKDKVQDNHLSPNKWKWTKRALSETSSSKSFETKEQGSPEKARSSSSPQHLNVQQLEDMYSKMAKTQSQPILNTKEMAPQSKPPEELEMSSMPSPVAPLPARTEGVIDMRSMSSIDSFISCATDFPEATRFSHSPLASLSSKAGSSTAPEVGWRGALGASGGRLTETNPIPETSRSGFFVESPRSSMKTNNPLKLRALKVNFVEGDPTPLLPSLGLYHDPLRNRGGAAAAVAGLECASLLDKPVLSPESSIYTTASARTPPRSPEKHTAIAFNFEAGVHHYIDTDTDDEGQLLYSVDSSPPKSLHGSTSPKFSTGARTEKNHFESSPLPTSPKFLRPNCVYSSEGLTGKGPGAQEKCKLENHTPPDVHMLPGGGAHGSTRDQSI
Assay: Whole-cell voltage clamp of CHO cells transfected with Kv2.1
Format: cell-based
Source text: Kv2.1 mutants were constructed using the QuickChange Multi Site-Directed Mutagenesis Kit (Stratagene, La Jolla, Calif.). Mutant Kv2.1 genes (in the pGA1 oocyte expression vector for oocyte expression) were sequenced in their entirety to confirm appropriate mutations and check for inadvertent mutations, and then subcloned into a wild-type pGA1 backbone. For oocyte expression, Kv3.4 was in pBF1, Kv4.2 was in pRAT. cRNA transcripts were produced from SacII-linearized (Kv2.1), Mlullinearized (Kv3.4) and Not1-linearized (Kv4.2) DNA templates using the T3 (Kv2.1), SP6 (Kv3.4) and T7 (Kv4.2) mMessage mMachine kits (Ambion, Austin, Tex.). cRNA was quantified by spectrophotometry and its size integrity verified by gel electophoresis. Defolliculated stage V and VI Xenopus laevis oocytes (purchased from Nasco, Grand Island, N.Y.) were injected with 5 ng of cRNA encoding Kv2.1, Kv3.4 or Kv4.2. Chinese Hamster Ovary (CHO) cells were transfected with 0.25 μg Kv2.1 cDNA, 2 μg blank plasmid and 2 μg Green fluorescent Protein in pBOB using Supetfect transfection reagent (Qiagen) 24 hours before whole-cell voltage clamp studies.
For whole-cell voltage clamp studies of CHO cells, bath solution was (in mM): 135 NaCl, 5 KCl, 1.2 MgCl2, 5 HEPES, 2.5 CaCl2, and 10 D-glucose, pH 7.4. Pipettes were 3-5 MQ resistance when filled with intracellular solution containing (in mM): 10 NaCl, 117 KCl, 2 MgCl2, 11 HEPES, 11 EGTA, and 1 CaCl2, pH 7.2. For experiments with extracellular drug application, cells were held at −80 mV and subjected to 2 sec test pulses […] every 30 s. Whole-cell patch clamp recordings were performed at 22-25° C. using an IX50 inverted microscope equipped with epifluorescence optics for GFP detection (Olympus), a Multiclamp 700 A Amplifier, a Digidata 1300 Analogue/Digital converter and pClamp9 software (Axon Instruments). Leak and liquid junction potentials (<4 mV) were not compensated for when generating current-voltage relationships. For intracellular drug application, the tip of the recording electrode was first filled with drug-free intracellular solution, the electrode was then back-filled with intracellular solution containing TEA (20 mM), TA279 (5 mM) or JC638.2α (0.5 mM). Cells were held at −80 mV and subjected to 2 sec test pulses from −60 mV to +60 mV in 10 mV increments, followed by a 1 sec tail pulse to −30 mV. After an initial recording which we denoted time 0, a second recording was performed after 5 minutes.
Data analysis: Current-voltage relationships were obtained by measuring peak current during depolarizing pulses. Inhibition constants for DABCO blockers were calculated after generating a dose response curve by fitting with a logistic dose-response function y=A2+[A1−A2/1+(x/x0)^p], where A1 is the maximum response plateau, A2 is the minimum response plateau, x is drug concentrator, x0 is the IC50, and p the Hill slope. Data analysis was performed using CLAMPFIT 9 (Axon Instruments, Foster City, Calif.) and tabulated in Excel 5.0. Graphs were generated using Origin 6.1. Data are expressed as mean±SEM, with n specifying the number of independent experiments. Statistical significance was assessed by one-way ANOVA with p<0.05 being indicative of significance.

Row | SMILES | block on intracellular application (0.5 mM via recording electrode, 0 mV) | sensitivity of Kv2.1 in CHO cells relative to Kv2.1 in oocytes [fold] | block on intracellular application (5 μM via recording electrode, 0 mV, at 0 or 5 minutes) | inhibition at 0.5 µM (CHO, extracellular application, 500 nM, 0 mV, n=3, read-out: mean current inhibition) [%]
1 | c1cc(C[N+]23CCN(CC2)CC3)ccc1C[N+]12CCN(CC1)CC2 [JC638.2α, α,α′-[bis(4-aza-1-azoniabicyclo[2.2.2]octanyl)]p-xylene] | no significant block | – | – | –
2 | CCCCCCCCCCCCCCCC[N+]12CCN(CC1)CC2 [TA279, 1-aza-4-azonia-4-hexadecylbicyclo[2.2.2]octane] | – | ~4 | no significant block | 59 ± 4
